Among the data in ChEMBL document CHEMBL3822386, “New sesquiterpene lactones, vernonilides A and B, from the seeds of Vernonia anthelmintica in Uyghur and their antiproliferative activities” (Bioorg Med Chem Lett, 2016) are IC50 values, retold here.

Format in all cases: functional, cell-based
The test system of experiment [1] is A549. In words: Antiproliferative activity against human A549 cells assessed as reduction in cell viability after 72 hrs by WST-8 assay. The following applies: A549, 72 h.
Experiment [2] relates to HeLa. In words: Antiproliferation activity against human HeLa cells assessed as reduction in cell viability after 72 hrs by WST-8 assay.
Experiment [3] concerns MDA-MB-231. In words: Antiproliferation activity against human MDA-MB-231 cells assessed as reduction in cell viability after 72 hrs by WST-8 assay. The following applies: MDA-MB-231, 72 h.

In the case of `C=C[C@]1(C)C[C@H](OC(=O)C(=C)CO)[C@H]2C(=C)C(=O)O[C@@H]2[C@H]1C(=C)C=O`, the IC50 in experiment [1] came to 0.7 µM; in experiment [2] it was 0.4 µM; in experiment [3] it was 0.35 µM.

For `C=C(CO)C(=O)O[C@H]1CC(=C)[C@@H]2CC[C@@H](CO)[C@@H]2[C@H]2OC(=O)C(=C)[C@@H]21`, the IC50 in experiment [1] is 1 µM; in experiment [2] it was 0.1 µM; in experiment [3], 0.25 µM.

Turning to `C=C[C@]1(C)C[C@H](OC(=O)C(=C)COC(C)=O)[C@H]2C(=C)C(=O)O[C@@H]2[C@H]1C(=C)C=O`, the values for the IC50 in experiment [1], in experiment [2] and in experiment [3] were 2.95 µM, 4.16 µM and 3.2 µM, respectively.

For the compound `C=C[C@@]12COC(=O)C(=C)[C@@H]1[C@H]1OC(=O)C(=C)[C@@H]1[C@@H](OC(=O)C(=C)COC(C)=O)C2`, the IC50 was determined as 1.52 µM in experiment [1], 2.16 µM in experiment [2] and 1.35 µM in experiment [3].

On to `C=C[C@@]12COC(=O)C(=C)[C@@H]1[C@H]1OC(=O)C(=C)[C@@H]1[C@@H](OC(=O)C(=C)COCC)C2`, for which the IC50 in experiment [1] was found to be 21.6 µM; in experiment [2], 16.3 µM; in experiment [3], 9.5 µM.

For the compound `C=C[C@@]12COC(=O)C(=C)[C@@H]1[C@H]1OC(=O)C(=C)[C@@H]1[C@@H](OC(=O)C(=C)CO)C2` [VERNODALIN], the figures for the 50% inhibitory concentration (IC50) in experiment [1], in experiment [2] and in experiment [3] were 0.4 µM, 0.2 µM and 0.3 µM, respectively.

For the compound `C=C[C@@]12COC(=O)C(=C)[C@@H]1[C@H]1OC(=O)C(=C)[C@@H]1[C@@H](O)C2` [VERNOLEPIN], the IC50 in experiment [1] is 16.9 µM; in experiment [2], 2.2 µM; in experiment [3], 1.9 µM.
